Measured values taken from publication PMC9721426, “Novel piperine-carboximidamide hybrids: design, synthesis, and antiproliferative activity via a multi-targeted inhibitory pathway” (Journal of Enzyme Inhibition and Medicinal Chemistry, 2022).

Experiments:
[1] = MTT cell viability assay on normal mammary epithelial cells; format: cell-based; conditions: human, MCF-10A normal cells, 4 days incubation
Method: A human mammary gland epithelial (MCF-10A) normal cell line was used to perform the viability test. The viability of compounds VIa-k was determined using the MTT assay after 4 days of incubation with MCF-10A cells[26]^,[27].
The MTT assay was used to assess how the synthetic compounds impacted the viability of mammary epithelial cells (MCF-10A)[26]^,[27]. Appendix A. […]
4.2. Biological evaluation
4.2.1. Cytotoxic activity using MTT Assay and evaluation of IC50
MTT assay was carried out to study the effect of compounds on mammary epithelial cells (MCF-10A)26,27. The medium in which cells were propagated contained Dulbecco's modified Eagle's medium (DMEM)/ Ham's F-12 medium (1:1) supplemented with epidermal growth factor (20 ng/mL), hydrocortisone (500 ng/mL), insulin (10 μg/mL), 2 mM glutamine and 10% foetal calf serum. After every 2-3 days, the cells were passaged using trypsin ethylenediamine tetra acetic acid (EDTA). The cells were seeded at a density of 10^4 cells mL-1 in flat-bottomed culture plates containing 96 wells each. […]
(§1) A single compound was designated with four wells followed by incubation of plates for 96h at 37°C. After incubation, medium was removed completely from the plates followed by addition of MTT (0.4 mg/mL in medium) to each well and subsequent incubation of plates for 3h. MTT (along with the medium) was removed and DMSO (150μL) was added to each well of the culture plates, followed by vortexing and subsequent measurement of absorbance (at 540 nm) using microplate reader. […]

[2] = test system: A-549 (epithelial cancer cell line); assay: Antiproliferative MTT assay, A-549; format: cell-based; conditions: Homo sapiens, A549; A-549, MTT; read-out: Antiproliferative activity IC50 ± SEM, A-549
Method: (§2) The MTT assay was performed using various cell lines in accordance with previously reported procedures[28]^,[29] to investigate the antiproliferative potential of VIa-k. Refer to Appendix A. […]
(§3) added (in 200 μL medium to yield a final concentration of 0.1% v/v) to the wells of plates. A single compound was designated with four wells followed by incubation of […]
as §1, with “After” for “A single compound was designated with four wells followed by incubation of plates for 96h at 37°C. After”, “reader. The data are shown as percentage inhibition of proliferation in comparison with controls containing 4.2.1.2. Assay for antiproliferative effect” for “reader.”
(§4) The percentage cytotoxicity of compounds was calculated using the following […]
(§5) Where ATC= Absorbance of treated cells and AC= Absorbance of control. […]
(§6) used as positive control in the assay. […]

[3] = test system: MCF-7 (breast cancer cell line); assay: Antiproliferative MTT assay, MCF-7; format: cell-based; conditions: Homo sapiens, MCF7; MCF-7, MTT; read-out: Antiproliferative activity IC50 ± SEM, MCF-7
Method: as §2, §3
as §1, with “After” for “A single compound was designated with four wells followed by incubation of plates for 96h at 37°C. After”, “reader. The data are shown as percentage inhibition of proliferation in comparison with controls containing 4.2.1.2. Assay for antiproliferative effect” for “reader.”
as §4, §5, §6

[4] = test system: Panc-1 (pancreatic cancer cell line); assay: Antiproliferative MTT assay, Panc-1; format: cell-based; conditions: Homo sapiens; Panc-1, MTT; read-out: Antiproliferative activity IC50 ± SEM, Panc-1
Method: as §2, §3
as §1, with “After” for “A single compound was designated with four wells followed by incubation of plates for 96h at 37°C. After”, “reader. The data are shown as percentage inhibition of proliferation in comparison with controls containing 4.2.1.2. Assay for antiproliferative effect” for “reader.”
as §4, §5, §6

[5] = test system: HT-29 (colon cancer cell line); assay: Antiproliferative MTT assay, HT-29; format: cell-based; conditions: Homo sapiens; HT-29, MTT; read-out: Antiproliferative activity IC50 ± SEM, HT-29
Method: as §2, §3
as §1, with “After” for “A single compound was designated with four wells followed by incubation of plates for 96h at 37°C. After”, “reader. The data are shown as percentage inhibition of proliferation in comparison with controls containing 4.2.1.2. Assay for antiproliferative effect” for “reader.”
as §4, §5, §6

[6] = target: T1, EGFR (Homo sapiens, UniProt P00533); assay: EGFR-TK inhibitory assay; format: biochemical; conditions: EGFR-TK assay; read-out: EGFR inhibition IC50 ± SEM
T1 construct: cytoplasmic domain (EGFR -CD, amino acids 645–1186); His6 (N); made in house; host or cells: Sf-9 insect cells (baculovirus, pBlueBacHis2B / pFASTBacHTc)
T1 sequence (P00533 669-1210): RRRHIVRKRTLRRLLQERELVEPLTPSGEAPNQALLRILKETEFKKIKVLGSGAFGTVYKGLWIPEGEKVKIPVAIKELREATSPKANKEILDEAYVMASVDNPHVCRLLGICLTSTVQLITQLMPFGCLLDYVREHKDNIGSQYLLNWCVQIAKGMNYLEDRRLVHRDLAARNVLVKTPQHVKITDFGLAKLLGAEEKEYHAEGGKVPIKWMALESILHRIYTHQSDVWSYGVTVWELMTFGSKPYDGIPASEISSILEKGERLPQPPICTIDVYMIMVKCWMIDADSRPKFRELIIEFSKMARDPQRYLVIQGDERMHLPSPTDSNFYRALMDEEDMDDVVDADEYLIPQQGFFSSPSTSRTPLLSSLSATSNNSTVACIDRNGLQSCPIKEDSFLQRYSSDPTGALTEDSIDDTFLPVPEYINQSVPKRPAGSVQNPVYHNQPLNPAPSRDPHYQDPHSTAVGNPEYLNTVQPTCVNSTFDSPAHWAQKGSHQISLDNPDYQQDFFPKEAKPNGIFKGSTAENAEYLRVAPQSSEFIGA
Method: 4.2.1.3. EGFR inhibitory assay
EGFR-TK assay was performed to evaluate the inhibitory potency of the tested compounds against EGFR30. Baculoviral expression vectors including pBlueBacHis2B […]
sequence comprised a sequence that encoded (His) 6. Sf-9 cells were infected for 72h for protein expression. The pellets of Sf-9 cells were solubilized in a buffer containing sodium vanadate (100 µM), aprotinin (10 µg/mL), triton (1%), HEPES buffer (50mM), ammonium molybdate (10 µM), benzamidine HCl (16 µg/mL), NaCl (10 mM), leupeptin (10 µg/mL) and pepstatin (10 µg/mL) at 0°C for 20 min at pH 7.4, followed by centrifugation for 20 min. To eliminate the non-specifically bound material, a Ni-NTA super flow packed column was used to pass through and wash the crude extract supernatant first with 10 mM and then with 100 mM imidazole. […]
NaCl (50 mM), HEPES (20 mM), glycerol (10%) and 1 µg/mL each of aprotinin, leupeptin and pepstatin for 120 min. The purification was performed either at 4 °C or on ice. To record autophosphorylation level, EGFR kinase assay was carried out on the basis of DELFIA/Time-Resolved Fluorometry. The compounds were first dissolved in DMSO […]
pH 7.4. Each compound (10 µL) was incubated with recombinant enzyme (10 µL, 5 ng for EGFR, 1:80 dilution in 100 mM HEPES) for 10 min at 25 °C, subsequent to the addition of 5X buffer (10 µL, containing 2 mM MnCl2, 100 µM Na3VO4, 20 mM HEPES and 1 mM DTT) and ATP-MgCl2 (20 µL, containing 0.1 mM ATP and 50 mM MgCl 2) and incubation for 1h. The negative and positive controls were included in each plate by the incuba tion of enzyme either with or without ATP -MgCl2. The liquid was removed after incubation and the plates were washed thrice using wash buffer. Europium -tagged antiphosphotyrosine antibody (75 µL, 400 ng) was added to each well followed by incubation of 1h a nd then washing of the plates using buffer. The enhancement solution was added to each well and the signal was recorded at excitation and emission […]
The autophosphorylation percentage inhibition by compounds was calculated using the following equation: […]
Using the curves of percentage inhibition of eight concentrations of each compound, IC 50

[7] = test system: LOX-IMVI melanoma cell line; assay: LOX-IMVI melanoma cell line MTT cytotoxicity assay; format: cell-based; conditions: Homo sapiens, 5-dose concentrations, read-out: LOX-IMVI melanoma IC50 ± SEM
Method: The MTT cytotoxicity assay was used to assess the anticancer activity of VIc, VIf, and VIk on the LOX-IMVI melanoma cell line, which comprises BRAF^V600E kinase overexpression. The compounds were evaluated at 5-dose concentrations to ascertain their IC50 values, with staurosporine acting as a control.
The MTT cytotoxicity assay was used to assess the anticancer activity of VIc, VIf, and VIk on the LOX-IMVI melanoma cell line, which comprises BRAF^V600E kinase overexpression. Refer to Appendix A.

[8] = target: Human CDK2/A2 (Homo sapiens, UniProt P24941); assay: CDK2 inhibitory assay
Method: Protein Kinase Assays. Human CDK2/A2 was purchased from New England Biolabs IC50 values for CDK2/A were determined according to the supplier’s instructions

[9] = MCF-10A mammary epithelial cells

| Structure (SMILES) | viability at 4 days, 50 µM ([1]; MCF-10A normal mammary gland epithelial cells) [%] | IC50 [2] [nM] | IC50 [3] [nM] | IC50 [4] [nM] | IC50 [5] [nM] | IC50 [6] [nM] | IC50 [7] [nM] | IC50 [8] [nM] | CDK2 potency relative to the reference dinaciclib (more potent) ([8]; ratio of IC50 values) [fold] | viability at 4 days, 50 µM [1, 9] [%] |
| --- | --- | --- | --- | --- | --- | --- | --- | --- | --- | --- |
| N/C(=N/OC(=O)/C=C/C=C/c1ccc2c(c1)OCO2)c1ccc2c(c1)OCO2 [VIk] | 89 | 32 ± 3 | 35 ± 3 | 36 ± 3 | 38 ± 3 | 127 ± 10 | 1050 ± 10 | 12 ± 2 | 1.5 |  |
| NC(=NOC(=O)/C=C/C=C/c1ccc2c(c1)OCO2)c1ccc(Br)cc1 [VIc, N'-{[(2E,4E)-5-(2H-1,3-Benzodioxol-5-yl)penta-2,4-dienoyl]oxy}-4-bromobenzene-1-carboximidamide] |  | 45 ± 5 | 47 ± 5 | 53 ± 5 | 55 ± 5 | 112 ± 8 | 1400 ± 20 | 23 ± 2 |  | 86 |
| NC(=NOC(=O)/C=C/C=C/c1ccc2c(c1)OCO2)c1ccccc1Cl [VIf, N'-{[(2E,4E)-5-(2H-1,3-benzodioxol-5-yl)penta-2,4-dienoyl]oxy}-2-chlorobenzene-1-carboximidamide] |  | 41 ± 4 | 43 ± 4 | 45 ± 4 | 47 ± 4 | 105 ± 7 | 1100 ± 10 | 21 ± 2 |  | 90 |
